# Measured values reported in US9758484B2 (Asieris Pharmaceutical Technologies Co., Ltd., priority 2013, dated 2017).
# Several values for one entry are separate records, joined by “and”; a condition that tells them apart may be missing. Equal values may be shown once.
# Tests used:
# [1] = humans, orally administered; cited from earlier work
# [2] = In vivo urinary excretion of nitroxoline and nitroxoline salts in mice; design: species or system CD-1 ICR mice; details: 41.8 mg/kg
# Procedure: Urine samples were collected in the following periods of time: 0-2, 2-6, 6-24 h. Due to the small volume of the urine from mice, the collecting system in the cage was washed with water at each collecting time. Urine samples and their wash samples were analyzed according to the same methods used in the beagle dog study (Example 24).
# (§1) The same study was repeated with APL-1092, nitroxoline lysine salt.
# [3] = In vivo urinary excretion of nitroxoline and nitroxoline salts in beagle dogs
# Procedure: Urine samples were collected in the following periods of time: 0-2, 2-4, 4-6, 6-8, 8-24 h. Urine samples were analyzed by LC/MS/MS method utilizing an Agilent 1100 HPLC system with a CTC auto-sampler, an AB API4000 mass spectrometer, and a column of ACQUITY UPLC BEH C18 (2.1*50 mm) Dexamethasone was used as an internal standard. […] The range of linearity was determined to be 25˜5000 ng/mL.
# as §1
# [4] = Solubility tests of nitroxoline and nitroxoline salts in aqueous buffers and water; type: physicochemical; details: aqueous buffers pH 1.2 to 8, 25 °C, pH 1.2, aqueous buffer, thermodynamic from solid, all pHs tested, from pH 1.2 to 8; read-out: solubility at all pHs tested
# Procedure: 1) Aqueous buffer solutions with varying pH were prepared as follows: • i. Water: distilled water; • ii. pH=1.2 buffer: 7.65 mL 36.5% HCl solution was diluted to 1000 mL with water; • iii. pH=4.5 buffer: 18 g sodium acetate and 9.8 mL acetic acid were diluted to 1000 mL with water; • iv. pH=5.0 buffer: sodium hydroxide was added to 0.2 mol/L monosodium phosphate (NaH2PO4) solution until the pH was adjusted to 5.0; • v. pH=6.0 buffer: 18 g sodium acetate were added into 20 mL acetic acid solution (1 M), and the mixture was diluted to 500 mL with water; • vi. pH=6.8 buffer: 250 mL of 0.2 M monopotassium phosphate (KH2PO4) solution were added to 118 mL of 0.2 M sodium hydroxide solution, and the mixture was diluted to 1000 mL with water; • vii. pH=7.4 buffer: 1.36 g monopotassium phosphate (KH2PO4) were added to 79 mL of 0.1 M sodium hydroxide solution, and the mixture was diluted to 200 mL with water; and • viii pH=8.0 buffer: 5.59 g potassium biphosphate (K2HPO4) and 0.41 g monopotassium. phosphate (KH2PO4) were added to 1000 mL water and mixed.
# 2) Solubility tests were performed generally as follows:
# Under a temperature of 25±2° C., 10 mg of each salt sample was weighed and added to a 100 mL volumetric bottle. 0.25 mL buffer was added to the bottle, which was shaken vigorously for 30 seconds every 5 min.
# If the sample was not completely dissolved, 0.7 mL of the same buffer was added, and dissolution was observed by the same shaking procedure.
# If the sample was not completely dissolved, 8.5 mL of the same buffer was added, and dissolution was observed by the same shaking procedure.
# If the sample was not completely dissolved, 85 mL of the same buffer was added, and dissolution was observed by the same shaking procedure.
smiles,measurement,setting,value
"O=[N+]([O-])c1ccc(O)c2ncccc12 [APL-1202, nitroxoline, reference compound]",half-life (t1/2),[1],2.63 h
same,24-Hr Accumulated drug in the urine,"[2]; In Mice, 41.8 mg/Kg APL-1202 or equivalent dose",79.8 µg
same,Total mass of nitroxoline in urine and wash,"[2]; individual mice, oral, equivalent of 41.8 mg/Kg nitroxoline, 0-24 hr",124391 ng and 50517 ng and 23093 ng and 41201 ng and 88137 ng and 151622 ng
same,f (%): percentage of total mass of excreted drug versus the dose amount,"[2]; individual mice, oral, equivalent of 41.8 mg/Kg nitroxoline",15.2% and 6.17% and 2.94% and 5.24% and 10.9% and 19.5%
same,"Mass of nitroxoline, 0~2 wash","[2]; individual mice, oral, equivalent of 41.8 mg/Kg nitroxoline, cage wash 0~2 hr",2856 ng and 6652.8 ng and 784 ng and 4212 ng and 8250 ng and 2352 ng
same,"Mass of nitroxoline, 2~6 wash","[2]; individual mice, oral, equivalent of 41.8 mg/Kg nitroxoline, cage wash 2~6 hr",1283 ng and 5325 ng and 957 ng and 2904 ng and 1530 ng and 346 ng
same,"Mass of nitroxoline, 6~24 wash","[2]; individual mice, oral, equivalent of 41.8 mg/Kg nitroxoline, cage wash 6~24 hr",249 ng and 1428 ng and 2341 ng and 1558 ng and 1102 ng and 152 ng
same,"Mass of nitroxoline in urine, 0-2 hr","[2]; individual mice, oral, equivalent of 41.8 mg/Kg nitroxoline, urine 0-2 hr",109552 ng and 10584 ng and 1360 ng and 21035 ng and 61040 ng and 137700 ng
same,"Mass of nitroxoline in urine, 2-6 hr","[2]; individual mice, oral, equivalent of 41.8 mg/Kg nitroxoline, urine 2-6 hr",10404 ng and 26418 ng and 17600 ng and 11412 ng and 14715 ng and 11000 ng
same,"Mass of nitroxoline in urine, 6-24 hr","[2]; individual mice, oral, equivalent of 41.8 mg/Kg nitroxoline, urine 6-24 hr",47.8 ng and 109 ng and 50.9 ng and 81 ng and 1500 ng and 71.5 ng
same,"Total mass of nitroxoline in urine and wash, Mean","[2]; mean of mice, oral, equivalent of 41.8 mg/Kg nitroxoline, 0-24 hr",79827 ng
same,"f (%): percentage of total mass of excreted drug versus the dose amount, Mean","[2]; mean of mice, oral, equivalent of 41.8 mg/Kg nitroxoline",10%
same,"Mass of nitroxoline, 0~2 wash, Mean","[2]; mean of mice, oral, equivalent of 41.8 mg/Kg nitroxoline, cage wash 0~2 hr",4184 ng
same,"Mass of nitroxoline, 2~6 wash, Mean","[2]; mean of mice, oral, equivalent of 41.8 mg/Kg nitroxoline, cage wash 2~6 hr",2057 ng
same,"Mass of nitroxoline, 6~24 wash, Mean","[2]; mean of mice, oral, equivalent of 41.8 mg/Kg nitroxoline, cage wash 6~24 hr",1138 ng
same,"Mass of nitroxoline in urine, 0-2 hr, Mean","[2]; mean of mice, oral, equivalent of 41.8 mg/Kg nitroxoline, urine 0-2 hr",56879 ng
same,"Mass of nitroxoline in urine, 2-6 hr, Mean","[2]; mean of mice, oral, equivalent of 41.8 mg/Kg nitroxoline, urine 2-6 hr",15258 ng
same,"Mass of nitroxoline in urine, 6-24 hr, Mean","[2]; mean of mice, oral, equivalent of 41.8 mg/Kg nitroxoline, urine 6-24 hr",310 ng
same,24-Hr Accumulated drug in the urine,"[3]; In Dogs, 75 mg APL-1202 or equivalent amount",97 µg
same,f (%): percentage of total mass of excreted drug versus the dose amount,"[3]; individual dogs, oral tablet, 75 mg nitroxoline equivalent",0.074% and 0.11% and 0.205%
same,Total mass of nitroxoline in urine,"[3]; individual dogs, oral tablet, 75 mg nitroxoline equivalent, 0-24 hr",55350 ng and 82489 ng and 153888 ng
same,"Mass of nitroxoline in urine, 0-2 hr","[3]; individual dogs, oral tablet, 75 mg nitroxoline equivalent, collection 0-2 hr",5670 ng and 60420 ng and 105600 ng
same,"Mass of nitroxoline in urine, 2-4 hr","[3]; individual dogs, oral tablet, 75 mg nitroxoline equivalent, collection 2-4 hr",0 ng and 13005 ng and 5502 ng
same,"Mass of nitroxoline in urine, 4-6 hr","[3]; individual dogs, oral tablet, 75 mg nitroxoline equivalent, collection 4-6 hr",0 ng and 817 ng and 28696 ng
same,"Mass of nitroxoline in urine, 6-8 hr","[3]; individual dogs, oral tablet, 75 mg nitroxoline equivalent, collection 6-8 hr",0 ng and 2582 ng and 5808 ng
same,"Mass of nitroxoline in urine, 8-24 hr","[3]; individual dogs, oral tablet, 75 mg nitroxoline equivalent, collection 8-24 hr",49680 ng and 5664 ng and 8282 ng
same,"f (%): percentage of total mass of excreted drug versus the dose amount, Mean","[3]; mean of dogs, oral tablet, 75 mg nitroxoline equivalent",0.13%
same,"Total mass of nitroxoline in urine, Mean","[3]; mean of dogs, oral tablet, 75 mg nitroxoline equivalent, 0-24 hr",97242 ng
same,"Mass of nitroxoline in urine, 0-2 hr, Mean","[3]; mean of dogs, oral tablet, 75 mg nitroxoline equivalent, collection 0-2 hr",57230 ng
same,"Mass of nitroxoline in urine, 2-4 hr, Mean","[3]; mean of dogs, oral tablet, 75 mg nitroxoline equivalent, collection 2-4 hr",9254 ng
same,"Mass of nitroxoline in urine, 4-6 hr, Mean","[3]; mean of dogs, oral tablet, 75 mg nitroxoline equivalent, collection 4-6 hr",14757 ng
same,"Mass of nitroxoline in urine, 6-8 hr, Mean","[3]; mean of dogs, oral tablet, 75 mg nitroxoline equivalent, collection 6-8 hr",4195 ng
same,"Mass of nitroxoline in urine, 8-24 hr, Mean","[3]; mean of dogs, oral tablet, 75 mg nitroxoline equivalent, collection 8-24 hr",21209 ng
same,solubility at 30 min,[4],< 100 µg/mL
